Test results taken from US10329302B2, “Bicyclic-fused heteroaryl or aryl compounds” (Pfizer Inc., priority 2014, dated 2019).

Target: human IRAK4 kinase domain (aa 154-460) (Homo sapiens (Human), UniProt Q9NWZ3)
Experiment: IRAK4 Enzymatic DELFIA Assay, Protocol B
Type: biochemical
Settings: human IRAK4 kinase domain (aa 154-460), 0.6 mM ATP (KM); read-out: IRAK4 DELFIA Protocol B IC50
From the text: IRAK4 Enzymatic DELFIA Assay, Protocol B.

Sequence of human IRAK4 kinase domain (aa 154-460) (Q9NWZ3 154-460): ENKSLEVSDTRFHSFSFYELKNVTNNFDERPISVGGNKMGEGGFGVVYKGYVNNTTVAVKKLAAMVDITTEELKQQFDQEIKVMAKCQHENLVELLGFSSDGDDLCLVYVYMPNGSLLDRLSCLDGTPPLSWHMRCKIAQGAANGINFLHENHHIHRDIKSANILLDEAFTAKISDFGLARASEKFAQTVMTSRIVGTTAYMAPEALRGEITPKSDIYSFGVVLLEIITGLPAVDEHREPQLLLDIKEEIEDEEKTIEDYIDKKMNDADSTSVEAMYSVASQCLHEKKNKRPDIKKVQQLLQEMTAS

Compound: CC(C)Oc1cc2c(OC3CC[C@@H]4CNC[C@H]34)nccc2cc1C(N)=O (stereo partly drawn) [Example 20, 1-[(3aR,6aS)-octahydrocyclopenta[c]pyrrol-4-yloxy]-7-(propan-2-yloxy)isoquinoline-6-carboxamide]
- IC50: 0.102 µM

Compound: CC(C)Oc1cc2c(OC[C@@H]3NC(=O)CC3(C)C)nccc2cc1C(N)=O [Example 223, 1-{[(2R)-3,3-dimethyl-5-oxopyrrolidin-2-yl]methoxy}-7-(propan-2-yloxy)isoquinoline-6-carboxamide]
- IC50: 0.015 µM

Compound: CC(C)Oc1cc2c(OCC3CNCCO3)nccc2cc1C(N)=O (stereo not shown) [Example 39, 1-(morpholin-2-ylmethoxy)-7-(propan-2-yloxy)isoquinoline-6-carboxamide]
- IC50: 0.386 µM

Compound: CC(C)Oc1cc2c(OC[C@H]3CNCCO3)nccc2cc1C(N)=O [Example 47, 1-[(2R)-morpholin-2-ylmethoxy]-7-(propan-2-yloxy)isoquinoline-6-carboxamide]
- IC50: 2.79 µM

Compound: CC(C)Oc1cc2c(OCC3CNC(=O)O3)nccc2cc1C(N)=O (stereo not shown) [Example 35, 1-[(2-oxo-1,3-oxazolidin-5-yl)methoxy]-7-(propan-2-yloxy)isoquinoline-6-carboxamide]
- IC50: 0.016 µM

Compound: CC(C)Oc1cc2c(OC[C@H]3CCCN3C(=O)CC#N)nccc2cc1C(N)=O [Example 61, 1-{[(2R)-1-(cyanoacetyl)pyrrolidin-2-yl]methoxy}-7-(propan-2-yloxy)isoquinoline-6-carboxamide]
- IC50: 0.249 µM

Compound: CC(C)Oc1cc2c(OC[C@H]3CNCCO3)ccnc2cc1C(N)=O [Example 53, 4-[(2R)-morpholin-2-ylmethoxy]-6-(propan-2-yloxy)quinoline-7-carboxamide]
- IC50: 2.38 µM

Compound: CC(C)Oc1cc2c(OC[C@H]3COCCN3C(=O)CC#N)nccc2cc1C(N)=O [Example 64, 1-{[(3R)-4-(cyanoacetyl)morpholin-3-yl]methoxy}-7-(propan-2-yloxy)isoquinoline-6-carboxamide]
- IC50: 0.641 µM

Compound: CC(C)Oc1cc2c(OC3C[C@@H]4CN[C@H]3C4)nccc2cc1C(N)=O (stereo partly drawn) [Example 72, 1-[(1S,4R)-2-azabicyclo[2.2.1]hept-6-yloxy]-7-(propan-2-yloxy)isoquinoline-6-carboxamide]
- IC50: 2.62 µM

Compound: CC(C)Oc1cc2c(OCC3CCOCC3)nccc2cc1C(N)=O [Example 36, 7-(propan-2-yloxy)-1-(tetrahydro-2H-pyran-4-ylmethoxy)isoquinoline-6-carboxamide]
- IC50: 0.735 µM

Compound: CC(C)Oc1cc2c(OC[C@@H]3CCCNC3)nccc2cc1C(N)=O [Example 48, 1-[(3R)-piperidin-3-ylmethoxy]-7-(propan-2-yloxy)isoquinoline-6-carboxamide]
- IC50: 0.366 µM

Compound: CO[C@H]1CNC[C@@H]1COc1nccc2cc(C(N)=O)c(OC(C)C)cc12 [Example 34, 1-{[(3R,4R)-4-methoxypyrrolidin-3-yl]methoxy}-7-(propan-2-yloxy)isoquinoline-6-carboxamide]
- IC50: 0.483 µM

Compound: CC(C)Oc1cc2c(OCC3CCCNC3)ccnc2cc1C(N)=O (stereo not shown) [Example 59, 4-(piperidin-3-ylmethoxy)-6-(propan-2-yloxy)quinoline-7-carboxamide]
- IC50: 0.243 µM

Compound: CC(C)Oc1cc2c(OC[C@]34CNCC[C@H]3C4)nccc2cc1C(N)=O [Example 162, 1-[(1S,6R)-3-azabicyclo[4.1.0]hept-1-ylmethoxy]-7-(propan-2-yloxy)isoquinoline-6-carboxamide]
- IC50: 0.035 µM

Compound: CC(C)Oc1cc2c(O[C@H]3C[C@@H]4C[C@H]3CN(C(=O)CC#N)C4)nccc2cc1C(N)=O [Example 81, 1-{[(1S,5S,6S)-3-(cyanoacetyl)-3-azabicyclo[3.2.1]oct-6-yl]oxy}-7-(propan-2-yloxy)isoquinoline-6-carboxamide]
- IC50: 0.479 µM

Compound: CC(C)Oc1cc2c(OCC3CNC(=O)C3)nccc2cc1C(N)=O (stereo not shown) [Example 111, 1-[(5-oxopyrrolidin-3-yl)methoxy]-7-(propan-2-yloxy)isoquinoline-6-carboxamide]
- IC50: 0.196 µM

Compound: CC(C)Oc1cc2c(O[C@H]3C[C@@H]4C[C@H]3CN4C(=O)CC#N)nccc2cc1C(N)=O [Example 74, 1-{[(1S,4S,5S)-2-(cyanoacetyl)-2-azabicyclo[2.2.1]hept-5-yl]oxy}-7-(propan-2-yloxy)isoquinoline-6-carboxamide]
- IC50: 0.043 µM

Compound: CC(C)Oc1cc2c(OC3CC[C@@H]4CNC[C@H]34)ccnc2cc1C(N)=O (stereo partly drawn) [Example 21, 4-[(3aR,6aS)-octahydrocyclopenta[c]pyrrol-4-yloxy]-6-(propan-2-yloxy)quinoline-7-carboxamide]
- IC50: 0.083 µM

Compound: CC(C)Oc1cc2c(OC[C@H]3[C@@H]4CNC[C@@H]43)ccnc2cc1C(N)=O [Example 5, 4-[(1R,5S,6r)-3-azabicyclo[3.1.0]hex-6-ylmethoxy]-6-(propan-2-yloxy)quinoline-7-carboxamide]
- IC50: 0.323 µM

Compound: CC(C)Oc1cc2c(O[C@@H]3C[C@H]4C[C@@H]3CN4)nccc2cc1C(N)=O [Example 02, 1-[(1R,4R,5R)-2-azabicyclo[2.2.1]hept-5-yloxy]-7-(propan-2-yloxy)isoquinoline-6-carboxamide]
- IC50: 0.217 µM

Compound: CC(C)Oc1cc2c(OC[C@@H]3[C@H]4CN(C(=O)CC#N)C[C@@H]34)ccnc2cc1C(N)=O [Example 87, 4-{[(1R,5S,6r)-3-(cyanoacetyl)-3-azabicyclo[3.1.0]hex-6-yl]methoxy}-6-(propan-2-yloxy)quinoline-7-carboxamide]
- IC50: 2.62 µM

Compound: CC(C)Oc1cc2c(OC[C@H]3CCCN3)nccc2cc1C(N)=O [Example 41, 7-(propan-2-yloxy)-1-[(2R)-pyrrolidin-2-ylmethoxy]isoquinoline-6-carboxamide]
- IC50: 2.35 µM

Compound: CC(C)Oc1cc2c(OC[C@H]3CCN(C(=O)CC#N)C3)ccnc2cc1C(N)=O [Example 22, 4-{[(3S)-1-(cyanoacetyl)pyrrolidin-3-yl]methoxy}-6-(propan-2-yloxy)quinoline-7-carboxamide]
- IC50: 0.045 µM

Compound: CC(C)Oc1cc2c(OCC3(F)CCNCC3)nccc2cc1C(N)=O [Example 38, 1-[(4-fluoropiperidin-4-yl)methoxy]-7-(propan-2-yloxy)isoquinoline-6-carboxamide]
- IC50: 4.64 µM

Compound: CC(C)Oc1cc2c(OC[C@H]3NC(=O)[C@@H]4OC(C)(C)O[C@H]34)nccc2cc1C(N)=O [Example 167, 1-{[(3aR,4R,6aR)-2,2-dimethyl-6-oxotetrahydro-3aH-[1,3]dioxolo[4,5-c]pyrrol-4-yl]methoxy}-7-(propan-2-yloxy)isoquinoline-6-carboxamide]
- IC50: 0.019 µM

Compound: COc1cc2c(OC[C@@H]3NC(=O)CC3(C)C)nccc2cc1C(N)=O [Example 222, 1-{[(2R)-3,3-dimethyl-5-oxopyrrolidin-2-yl]methoxy}-7-methoxyisoquinoline-6-carboxamide]
- IC50: 1.87 µM

Compound: CC(C)Oc1cc2c(OCC3(C)CCN(C(=O)CC#N)CC3)nccc2cc1C(N)=O [Example 86, 1-{[1-(cyanoacetyl)-4-methylpiperidin-4-yl]methoxy}-7-(propan-2-yloxy)isoquinoline-6-carboxamide]
- IC50: 0.216 µM

Compound: CC(C)Oc1cc2c(OCC3(C)CCN(C(=O)CC#N)CC3)ccnc2cc1C(N)=O [Example 91, 4-{[1-(cyanoacetyl)-4-methylpiperidin-4-yl]methoxy}-6-(propan-2-yloxy)quinoline-7-carboxamide]
- IC50: 0.489 µM

Compound: CC(C)Oc1cc2c(OCC3(C)CCNCC3)ccnc2cc1C(N)=O [Example 56, 4-[(4-methylpiperidin-4-yl)methoxy]-6-(propan-2-yloxy)quinoline-7-carboxamide]
- IC50: 1.49 µM

Compound: CC(C)Oc1cc2c(OCC3CCCS(=O)(=O)N3)nccc2cc1C(N)=O (stereo not shown) [Example 27, 1-[(1,1-dioxido-1,2-thiazinan-3-yl)methoxy]-7-(propan-2-yloxy)isoquinoline-6-carboxamide]
- IC50: 2.48 µM

Compound: CC(C)Oc1cc2c(OCC3CCNC3)nccc2cc1C(N)=O (stereo not shown) [Example 191, 7-(propan-2-yloxy)-1-(pyrrolidin-3-ylmethoxy)isoquinoline-6-carboxamide]
- IC50: 0.252 µM

Compound: CC(C)Oc1cc2c(OC[C@]34CNC(=O)[C@H]3C4)nccc2cc1C(N)=O [Example 175, 1-{[(1S,5S)-4-oxo-3-azabicyclo[3.1.0]hex-1-yl]methoxy}-7-(propan-2-yloxy)isoquinoline-6-carboxamide]
- IC50: 0.101 µM

Compound: CC(C)Oc1cc2c(OC[C@]34CNC[C@H]3C4)nccc2cc1C(N)=O [Example 40, 1-[(1S,5S)-3-azabicyclo[3.1.0]hex-1-ylmethoxy]-7-(propan-2-yloxy)isoquinoline-6-carboxamide]
- IC50: 0.109 µM

Compound: CC(C)Oc1cc2c(OC[C@H]3CN(C(=O)CC#N)CCO3)nccc2cc1C(N)=O [Example 78, 1-{[(2R)-4-(cyanoacetyl)morpholin-2-yl]methoxy}-7-(propan-2-yloxy)isoquinoline-6-carboxamide]
- IC50: 4.74 µM

Compound: CC(C)Oc1cc2c(OC[C@@H]3CCCNC3)ccnc2cc1C(N)=O [Example 3, 4-[(3R)-piperidin-3-ylmethoxy]-6-(propan-2-yloxy)quinoline-7-carboxamide]
- IC50: 2.24 µM

Compound: CC(C)Oc1cc2c(OC[C@H]3COCCN3)nccc2cc1C(N)=O [Example 158, 1-[(3R)-morpholin-3-ylmethoxy]-7-(propan-2-yloxy)isoquinoline-6-carboxamide]
- IC50: 1.44 µM

Compound: CC(C)Oc1cc2c(OC[C@@H]3CCCN(C(=O)CC#N)C3)ccnc2cc1C(N)=O [Example 97, 4-{[(3R)-1-(cyanoacetyl)piperidin-3-yl]methoxy}-6-(propan-2-yloxy)quinoline-7-carboxamide]
- IC50: 2.74 µM

Compound: CC(C)Oc1cc2c(OCC3CCCCN3)nccc2cc1C(N)=O (stereo not shown) [Example 43, 1-(piperidin-2-ylmethoxy)-7-(propan-2-yloxy)isoquinoline-6-carboxamide]
- IC50: 3.32 µM

Compound: CC(C)Oc1cc2c(OCC3COC(=O)N3C)nccc2cc1C(N)=O (stereo not shown) [Example 29, 1-[(3-methyl-2-oxo-1,3-oxazolidin-4-yl)methoxy]-7-(propan-2-yloxy)isoquinoline-6-carboxamide]
- IC50: 0.076 µM

Compound: CC(C)Oc1cc2c(OC[C@@H]3CCNC3)cccc2cc1C(N)=O [Example 115, 3-(propan-2-yloxy)-5-[(3R)-pyrrolidin-3-ylmethoxy]naphthalene-2-carboxamide]
- IC50: 0.061 µM
